In US10407430B2, “Janus kinase 1 selective inhibitor and pharmaceutical use thereof” (YANG JI CHEMICAL CO., LTD., priority 2015, dated 2019) one finds inhibition and JAK1/JAK2 data, which are given here for 15 compounds.

Holding throughout (type): biochemical
One test concerns the target T1, Human TYK2 (Homo sapiens, UniProt P29597).
T1 construct: purchased Millipore, Germany
Put plainly: In-vitro kinase inhibition test, TYK2. The conditions noted are these: compound at 1 uM; read-out: TYK2 kinase-phosphorylation inhibitory level (% inhibition).

A further test concerns the target T2, Human JAK2 (Homo sapiens, UniProt O60674).
T2 construct: purchased Millipore, Germany
Put plainly: In-vitro kinase inhibition test, JAK2. The conditions noted are these: compound at 1 uM; read-out: JAK2 kinase-phosphorylation inhibitory level (% inhibition).

The next test addresses T3, Human JAK1 (Homo sapiens, UniProt P23458).
T3 construct: purchased Millipore, Germany
The test is described as follows: In-vitro kinase inhibition test, JAK1. To be noted: for inhibition at 1 µM: compound at 1 uM, read-out: JAK1 kinase-phosphorylation inhibitory level (% inhibition); for JAK1/JAK2: ratio of % inhibition of JAK1 to JAK2 at 1 uM.

In another test the target is T4, Human JAK3 (Homo sapiens, UniProt P52333).
T4 construct: purchased Millipore, Germany
T4 sequence (P52333 1-1124): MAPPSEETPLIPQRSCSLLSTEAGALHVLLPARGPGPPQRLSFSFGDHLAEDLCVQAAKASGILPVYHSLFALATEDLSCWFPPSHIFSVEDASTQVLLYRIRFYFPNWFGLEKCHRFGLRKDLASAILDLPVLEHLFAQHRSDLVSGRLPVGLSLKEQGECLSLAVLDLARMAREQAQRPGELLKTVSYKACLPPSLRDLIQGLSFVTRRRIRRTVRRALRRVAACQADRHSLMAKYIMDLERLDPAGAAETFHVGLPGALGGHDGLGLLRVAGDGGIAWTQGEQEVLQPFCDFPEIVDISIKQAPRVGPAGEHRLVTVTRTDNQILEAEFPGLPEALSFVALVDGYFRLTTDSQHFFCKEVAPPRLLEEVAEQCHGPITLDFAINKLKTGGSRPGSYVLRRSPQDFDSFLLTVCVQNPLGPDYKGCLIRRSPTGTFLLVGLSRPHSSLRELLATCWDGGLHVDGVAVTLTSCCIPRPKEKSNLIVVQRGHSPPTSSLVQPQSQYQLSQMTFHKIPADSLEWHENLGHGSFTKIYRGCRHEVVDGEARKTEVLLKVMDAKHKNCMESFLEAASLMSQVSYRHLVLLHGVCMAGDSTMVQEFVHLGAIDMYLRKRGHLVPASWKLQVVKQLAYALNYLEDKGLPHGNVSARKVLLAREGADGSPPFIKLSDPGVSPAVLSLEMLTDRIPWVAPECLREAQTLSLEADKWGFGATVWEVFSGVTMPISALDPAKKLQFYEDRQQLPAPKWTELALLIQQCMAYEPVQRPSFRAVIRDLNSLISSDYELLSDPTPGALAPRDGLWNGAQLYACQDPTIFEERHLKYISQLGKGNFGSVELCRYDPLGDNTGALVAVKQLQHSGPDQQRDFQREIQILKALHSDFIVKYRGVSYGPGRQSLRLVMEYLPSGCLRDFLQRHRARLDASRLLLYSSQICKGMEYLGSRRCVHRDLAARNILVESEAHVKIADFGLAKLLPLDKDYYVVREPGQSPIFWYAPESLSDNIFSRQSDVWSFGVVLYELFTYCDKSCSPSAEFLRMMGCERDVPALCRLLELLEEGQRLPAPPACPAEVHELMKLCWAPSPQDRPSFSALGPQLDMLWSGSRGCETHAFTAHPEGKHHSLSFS
The test is described as follows: In-vitro kinase inhibition test, JAK3. To be noted: compound at 1 uM; read-out: JAK3 kinase-phosphorylation inhibitory level (% inhibition).

T3 sequence (P23458 whole entry): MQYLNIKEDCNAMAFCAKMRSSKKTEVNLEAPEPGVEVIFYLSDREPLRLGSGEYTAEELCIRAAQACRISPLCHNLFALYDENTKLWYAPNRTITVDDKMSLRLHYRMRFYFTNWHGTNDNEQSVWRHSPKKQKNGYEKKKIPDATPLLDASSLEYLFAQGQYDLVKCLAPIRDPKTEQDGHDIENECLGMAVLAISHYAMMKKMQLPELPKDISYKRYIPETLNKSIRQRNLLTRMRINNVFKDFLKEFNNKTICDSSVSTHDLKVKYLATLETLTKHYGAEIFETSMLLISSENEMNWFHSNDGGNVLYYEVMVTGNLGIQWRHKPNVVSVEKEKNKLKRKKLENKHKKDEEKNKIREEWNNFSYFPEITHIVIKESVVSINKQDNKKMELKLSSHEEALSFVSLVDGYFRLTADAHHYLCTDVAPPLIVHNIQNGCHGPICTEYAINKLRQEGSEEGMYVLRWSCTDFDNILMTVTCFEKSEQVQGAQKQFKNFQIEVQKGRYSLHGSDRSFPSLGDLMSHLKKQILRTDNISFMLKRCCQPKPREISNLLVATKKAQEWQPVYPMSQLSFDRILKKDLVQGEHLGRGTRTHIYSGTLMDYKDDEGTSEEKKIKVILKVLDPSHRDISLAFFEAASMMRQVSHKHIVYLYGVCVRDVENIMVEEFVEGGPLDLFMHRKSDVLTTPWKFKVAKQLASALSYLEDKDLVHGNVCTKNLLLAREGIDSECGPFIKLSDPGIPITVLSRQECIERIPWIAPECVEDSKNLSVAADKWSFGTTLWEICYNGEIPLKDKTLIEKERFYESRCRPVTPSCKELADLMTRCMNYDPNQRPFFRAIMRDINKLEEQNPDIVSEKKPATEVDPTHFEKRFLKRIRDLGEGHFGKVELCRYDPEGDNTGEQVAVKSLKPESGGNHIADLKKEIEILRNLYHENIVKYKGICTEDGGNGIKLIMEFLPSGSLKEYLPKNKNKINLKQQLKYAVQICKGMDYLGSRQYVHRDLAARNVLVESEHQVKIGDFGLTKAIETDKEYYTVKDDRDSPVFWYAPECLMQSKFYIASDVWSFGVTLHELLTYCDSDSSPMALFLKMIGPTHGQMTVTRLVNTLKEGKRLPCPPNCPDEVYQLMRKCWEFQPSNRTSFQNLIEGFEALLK
T1 sequence (P29597 whole entry): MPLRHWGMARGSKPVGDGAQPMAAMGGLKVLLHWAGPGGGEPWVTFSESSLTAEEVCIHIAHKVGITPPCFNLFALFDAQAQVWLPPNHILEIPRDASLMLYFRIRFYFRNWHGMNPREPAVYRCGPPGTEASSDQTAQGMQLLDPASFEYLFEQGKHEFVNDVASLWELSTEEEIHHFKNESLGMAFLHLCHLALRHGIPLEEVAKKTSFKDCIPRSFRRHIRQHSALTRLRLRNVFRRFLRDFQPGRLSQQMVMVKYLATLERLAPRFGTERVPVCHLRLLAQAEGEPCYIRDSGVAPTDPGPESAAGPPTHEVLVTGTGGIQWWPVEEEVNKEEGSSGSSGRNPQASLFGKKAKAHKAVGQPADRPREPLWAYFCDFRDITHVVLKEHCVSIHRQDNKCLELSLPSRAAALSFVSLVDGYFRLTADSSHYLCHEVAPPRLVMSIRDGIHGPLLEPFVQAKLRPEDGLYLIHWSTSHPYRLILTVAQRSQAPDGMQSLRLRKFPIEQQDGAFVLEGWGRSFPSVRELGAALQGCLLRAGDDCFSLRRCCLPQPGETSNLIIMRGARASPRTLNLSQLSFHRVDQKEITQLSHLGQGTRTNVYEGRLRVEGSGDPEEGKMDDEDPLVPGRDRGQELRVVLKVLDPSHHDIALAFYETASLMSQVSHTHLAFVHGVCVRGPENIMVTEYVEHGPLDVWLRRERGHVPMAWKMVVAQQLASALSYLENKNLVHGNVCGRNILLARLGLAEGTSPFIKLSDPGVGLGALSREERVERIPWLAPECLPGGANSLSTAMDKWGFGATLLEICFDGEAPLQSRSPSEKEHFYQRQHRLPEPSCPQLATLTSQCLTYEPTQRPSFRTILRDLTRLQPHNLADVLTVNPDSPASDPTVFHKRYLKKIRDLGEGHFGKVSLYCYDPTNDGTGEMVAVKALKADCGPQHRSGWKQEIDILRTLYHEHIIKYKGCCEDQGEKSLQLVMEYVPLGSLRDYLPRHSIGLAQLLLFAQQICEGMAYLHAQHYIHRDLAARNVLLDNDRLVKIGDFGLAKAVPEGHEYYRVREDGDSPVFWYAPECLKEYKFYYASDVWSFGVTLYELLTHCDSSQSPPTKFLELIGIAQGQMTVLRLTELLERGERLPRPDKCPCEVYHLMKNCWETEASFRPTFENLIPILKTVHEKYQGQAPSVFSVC
T2 sequence (O60674 whole entry): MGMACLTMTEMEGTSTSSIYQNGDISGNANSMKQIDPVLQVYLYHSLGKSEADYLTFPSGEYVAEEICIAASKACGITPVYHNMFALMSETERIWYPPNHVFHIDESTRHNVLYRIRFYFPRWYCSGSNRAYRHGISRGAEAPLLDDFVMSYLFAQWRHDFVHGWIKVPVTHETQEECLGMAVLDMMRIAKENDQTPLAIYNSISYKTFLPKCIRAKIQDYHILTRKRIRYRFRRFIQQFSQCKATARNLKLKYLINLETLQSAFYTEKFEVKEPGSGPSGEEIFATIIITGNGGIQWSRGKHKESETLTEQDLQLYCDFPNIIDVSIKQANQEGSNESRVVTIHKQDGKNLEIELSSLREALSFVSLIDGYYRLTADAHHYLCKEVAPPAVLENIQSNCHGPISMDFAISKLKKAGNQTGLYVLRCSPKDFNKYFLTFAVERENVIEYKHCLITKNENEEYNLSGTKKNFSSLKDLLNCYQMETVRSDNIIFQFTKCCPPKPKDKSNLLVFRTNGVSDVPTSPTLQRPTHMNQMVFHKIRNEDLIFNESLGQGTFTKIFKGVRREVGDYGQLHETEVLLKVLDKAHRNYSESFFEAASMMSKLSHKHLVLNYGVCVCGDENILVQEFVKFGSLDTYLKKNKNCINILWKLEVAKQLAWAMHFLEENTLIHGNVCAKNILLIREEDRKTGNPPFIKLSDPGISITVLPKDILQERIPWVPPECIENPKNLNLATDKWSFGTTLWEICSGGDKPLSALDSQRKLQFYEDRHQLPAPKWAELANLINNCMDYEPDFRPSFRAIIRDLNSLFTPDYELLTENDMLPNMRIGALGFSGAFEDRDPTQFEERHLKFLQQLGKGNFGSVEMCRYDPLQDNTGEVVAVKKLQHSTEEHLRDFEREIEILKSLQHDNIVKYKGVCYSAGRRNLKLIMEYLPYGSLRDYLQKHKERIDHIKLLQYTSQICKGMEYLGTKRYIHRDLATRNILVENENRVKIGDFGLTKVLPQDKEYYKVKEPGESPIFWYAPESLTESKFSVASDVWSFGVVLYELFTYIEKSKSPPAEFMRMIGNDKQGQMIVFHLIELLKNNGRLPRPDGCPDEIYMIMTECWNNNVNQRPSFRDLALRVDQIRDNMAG
Protocol for Human JAK2: (§1) Human-derived JAK1, JAK2, JAK3 and TYK2 (Millipore, Germany) were used as kinases. Each kinase was diluted with an appropriate buffer as described below, and then mixed with reaction reagents.
(§2) 3-morpholinopropane-1-sulfonic acid (MOPS) and EDTA were dissolved in deionized water at a concentration of 20 mM and 1 mM, respectively, and then 100 μL of β-mercaptoethanol, 10 μL of Brij-35™, 5 mL of glycerol, and 100 mg of bovine serum albumin (BSA), each per 100 mL of the solution, were added to the solution, thereby preparing a dilution buffer for JAK2, JAK3, and TYK2.
(§3) Each compound was dissolved in a 100%-DMSO solution at a concentration of about 50 μM. This prepared solution was reacted with reaction reagents in each well of a 96-well plate until a final concentration of the compound reached 1 μM. A detailed experimental method for each kinase is as follows.
(§4) After reaction for about 40 minutes at room temperature, the reaction was stopped by adding 5 uL of a 3% (v/v) phosphoric acid solution.
(§5) The inhibitory levels (% inhibition) represent a percentage of reduction in phosphorylation activity in each test group with respect to the phosphorylation activity of a corresponding kinase in a negative control group lacking any of the compounds synthesized in the examples. % inhibition=[(Scintillation value of Test compound non-treatment group−Scintillation value of Test compound treatment group)/(Scintillation value of Test compound non-treatment group)]×100
Protocol for Human TYK2: as §1, §2, §3, §4, §5

Turning to `CN(c1ncnc2[nH]ccc12)[C@@H]1CCN(CCC#N)C1` [Example 2, (R)-3-(3-(methyl(7H-pyrrolo[2,3-d]pyrimidine-4-yl)amino)pyrrolidine-1-yl)propanenitrile], the inhibition at 1 µM was found to be 58% on Human TYK2, 42% at Human JAK2, 91% on Human JAK1 and 39% on Human JAK3. Besides, the JAK1/JAK2 on Human JAK1 was determined as 2.17.
On the same counts, the results for `CC(C)COC(=O)N1CC[C@@H](N(C)c2ncnc3[nH]ccc23)C1` [Example 6, Isobutyl (R)-3-(methyl(7H-pyrrolo[2,3-d]pyrimidine-4-yl)amino)pyrrolidine-1-carboxylate] are 34%, 9%, 93%, 9% and 10.33.
Turning to `CN(c1ncnc2[nH]ccc12)[C@@H]1CCN(S(=O)(=O)c2ccc(F)cc2)C1` [Example 17, (R)—N-(1-((4-fluorophenyl)sulfonyl)pyrrolidine-3-yl)-N-methyl-7H-pyrrolo[2,3-d]pyrimidine-4-amine], the inhibition at 1 µM worked out at 92% on Human TYK2, 81% at Human JAK2, 99% at Human JAK1 and 29% at Human JAK3. Moreover, the JAK1/JAK2 on Human JAK1 is recorded as 1.22.
On the same counts, the results for `CC(C)CC(=O)N1CC[C@@H](N(C)c2ncnc3[nH]ccc23)C1` [Example 5, (R)-3-methyl-1-(3-(methyl(7H-pyrrolo[2,3-d]pyrimidine-4-yl)amino)pyrrolidine-1-yl)butane-1-one] are 63%, 13%, 93%, 10% and 7.15.
For `CN(c1ncnc2[nH]ccc12)[C@@H]1CCN(S(C)(=O)=O)C1` [Example 8, (R)—N-methyl-N-(1-(methylsulfonyl)pyrrolidine-3-yl)-7H-pyrrolo[2,3-d]pyrimidine-4-amine], the inhibition at 1 µM at Human TYK2 amounted to 59%; at Human JAK2, 7%; at Human JAK1, 91%; on Human JAK3 it was 21%. Further, the JAK1/JAK2 at Human JAK1 is given as 13.00.
For the compound `Cc1cccc(S(=O)(=O)N2CC[C@@H](N(C)c3ncnc4[nH]ccc34)C2)c1` [Example 24, (R)—N-methyl-N-(1-(m-tolylsulfonyl)pyrrolidine-3-yl)-7H-pyrrolo[2,3-d]pyrimidine-4-amine], the inhibition at 1 µM was determined as 87% on Human TYK2, 53% on Human JAK2, 95% at Human JAK1 and 8% on Human JAK3. The JAK1/JAK2 on Human JAK1 came out at 1.79.
The like results for `CN(c1ncnc2[nH]ccc12)[C@@H]1CCN(S(=O)(=O)c2ccccc2)C1` [Example 14, (R)—N-methyl-N-(1-(phenylsulfonyl)pyrrolidine-3-yl)-7H-pyrrolo[2,3-d]pyrimidine-4-amine] were, in that order, 91%, 69%, 99%, 17% and 1.43.
Consider `CN(c1ncnc2[nH]ccc12)[C@@H]1CCN(S(=O)(=O)c2cccc(C#N)c2)C1` [Example 19, (R)-3-((3-(methyl(7H-pyrrolo[2,3-d]pyrimidine-4-yl)amino)pyrrolidine-1-yl)sulfonyl)benzonitrile], for which the inhibition at 1 µM at Human TYK2 worked out at 95%; at Human JAK2, 81%; on Human JAK1, 99%; at Human JAK3, 42%. Further, at Human JAK1, the JAK1/JAK2 was 1.22.
On the same counts, the results for `N#CCC(=O)N1C[C@H]2CCCN(c3ncnc4[nH]ccc34)[C@H]2C1` [Example 49, 3-((4aR,7aR)-1-(7H-pyrrolo[2,3-d]pyrimidine-4-yl)octahydro-6H-pyrrolo[3,4-b]pyridine-6-yl)-3-oxopropanenitrile] are 21%, -7%, 54%, 1% and “∞”.
Turning to `C[C@@H]1CCN(S(=O)(=O)c2cccc(C#N)c2)C[C@@H]1N(C)c1ncnc2[nH]ccc12` [Example 42, 3-(((3R,4R)-4-methyl-3-(methyl(7H-pyrrolo[2,3-d]pyrimidine-4-yl)amino)piperidine-1-yl)sulfonyl)benzonitrile], the inhibition at 1 µM on Human TYK2 was 86%; at Human JAK2, 79%; at Human JAK1, 95%; at Human JAK3 it was 89%. In addition, the JAK1/JAK2 at Human JAK1 amounted to 1.20.
Consider `CN(c1ncnc2[nH]ccc12)[C@@H]1CCN(S(=O)(=O)c2ccc(C#N)cc2)C1` [Example 20, (R)-4-((3-(methyl(7H-pyrrolo[2,3-d]pyrimidine-4-yl)amino)pyrrolidine-1-yl)sulfonyl)benzonitrile], for which the inhibition at 1 µM turned out to be 84% at Human TYK2, 46% at Human JAK2, 97% at Human JAK1 and 9% on Human JAK3. In addition, the JAK1/JAK2 at Human JAK1 turned out to be 2.11.
On the same counts, the results for `CCS(=O)(=O)N1CC[C@@H](N(C)c2ncnc3[nH]ccc23)C1` [Example 10, (R)—N-(1-(ethylsulfonyl)pyrrolidine-3-yl)-N-methyl-7H-pyrrolo[2,3-d]pyrimidine-4-amine] are 74%, 27%, 94%, 22% and 3.48.
The like results for `N#CCC(=O)N1C[C@@H]2CCCN(c3ncnc4[nH]ccc34)[C@@H]2C1` [Example 50, 3-((4aS,7aS)-1-(7H-pyrrolo[2,3-d]pyrimidine-4-yl)octahydro-6H-pyrrolo[3,4-b]pyridine-6-yl)-3-oxopropanenitrile] were, in that order, 6%, -10%, 14%, 1% and “∞”.
The like results for `CN(c1ncnc2[nH]ccc12)[C@@H]1CCN(S(=O)(=O)c2ccc3ccccc3c2)C1` [Example 28, (R)—N-methyl-N-(1-(naphthalene-2-ylsulfonyl)pyrrolidine-3-yl)-7H-pyrrolo[2,3-d]pyrimidine-4-amine] were, in that order, 82%, 57%, 99%, 23% and 1.74.
For the compound `CC(C)S(=O)(=O)N1CC[C@@H](N(C)c2ncnc3[nH]ccc23)C1` [Example 12, (R)—N-(1-(isopropylsulfonyl)pyrrolidine-3-yl)-N-methyl-7H-pyrrolo[2,3-d]pyrimidine-4-amine], the inhibition at 1 µM was 47% on Human TYK2, 11% at Human JAK2, 86% at Human JAK1 and 13% on Human JAK3. For the same compound, the JAK1/JAK2 on Human JAK1 was found to be 7.82.

One may read the inhibition as the relative decrease from the control value, in per cent.
